Measured values published in the supplement of paper PMC10307832.

Key:
Test in all cases: relative viability (nuclei count vs DMSO), 5 days (fraction); higher = more cells survive
AZ505 + Pemetrexed = compound: C1CCC(CC1)N(CCNCCC2=C3C(=C(C=C2)O)NC(=O)CO3)C(=O)CCNCCC4=CC(=C(C=C4)Cl)Cl [AZ505] + Nc1nc2[nH]cc(CCc3ccc(C(=O)N[C@@H](CCC(=O)O)C(=O)O)cc3)c2c(=O)[nH]1 [Pemetrexed] (partner 0.2 µM)
Summary of the method: (§1)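 Lung cancer cell lines, seeded in 1536-well plates, were treated the following day by pin tool with a single drug or with five library-drug doses (not always all listed) in √10 steps on top of a fixed anchor-drug dose. Cells were fixed and nuclei stained in one step after 5 days, and nuclei were counted. Relative viability is the nuclei count for treated wells divided by that for vehicle wells, reported as medians of duplicate plates.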

AZ505 + Bortezomib = compound: C1CCC(CC1)N(CCNCCC2=C3C(=C(C=C2)O)NC(=O)CO3)C(=O)CCNCCC4=CC(=C(C=C4)Cl)Cl [AZ505] + CC(C)C[C@H](NC(=O)[C@H](Cc1ccccc1)NC(=O)c1cnccn1)B(O)O [Bortezomib] (partner 0.002 µM)
Summary of the method: as §1

AZ505 + Navitoclax = compound: C1CCC(CC1)N(CCNCCC2=C3C(=C(C=C2)O)NC(=O)CO3)C(=O)CCNCCC4=CC(=C(C=C4)Cl)Cl [AZ505] + CC1(C)CCC(c2ccc(Cl)cc2)=C(CN2CCN(c3ccc(C(=O)NS(=O)(=O)c4ccc(N[C@H](CCN5CCOCC5)CSc5ccccc5)c(S(=O)(=O)C(F)(F)F)c4)cc3)CC2)C1 [Navitoclax] (partner 0.5 µM)
Summary of the method: as §1

Dactolisib + Phenformin = compound: Cn1c(=O)n(-c2ccc(C(C)(C)C#N)cc2)c2c3cc(-c4cnc5ccccc5c4)ccc3ncc21 [Dactolisib] + N=C(N)NC(=N)NCCc1ccccc1 [Phenformin] (partner 250 µM)
Summary of the method: as §1

Cell Line	relative viability (AZ505 + Pemetrexed; first compound 0.08 µM)	relative viability (AZ505 + Pemetrexed; first compound 0.253 µM)	relative viability (AZ505 + Pemetrexed; first compound 0.8 µM)	relative viability (AZ505 + Pemetrexed; first compound 2.53 µM)	relative viability (AZ505 + Pemetrexed; first compound 8 µM)	relative viability (AZ505 + Bortezomib; first compound 0.08 µM)	relative viability (AZ505 + Bortezomib; first compound 0.253 µM)	relative viability (AZ505 + Bortezomib; first compound 0.8 µM)	relative viability (AZ505 + Bortezomib; first compound 2.53 µM)	relative viability (AZ505 + Bortezomib; first compound 8 µM)	relative viability (AZ505 + Navitoclax; first compound 0.08 µM)	relative viability (AZ505 + Navitoclax; first compound 0.253 µM)	relative viability (AZ505 + Navitoclax; first compound 0.8 µM)	relative viability (AZ505 + Navitoclax; first compound 2.53 µM)	relative viability (AZ505 + Navitoclax; first compound 8 µM)	relative viability (Dactolisib + Phenformin; first compound 0.002 µM)	relative viability (Dactolisib + Phenformin; first compound 0.006325 µM)	relative viability (Dactolisib + Phenformin; first compound 0.02 µM)	relative viability (Dactolisib + Phenformin; first compound 0.06325 µM)	relative viability (Dactolisib + Phenformin; first compound 0.2 µM)
NCI-H1650	0.352	0.396	0.351	0.402	0.446	0.234	0.189	0.205	0.248	0.188	1.21	1.34	1.25	1.15	1.14	0.355	0.41	0.454	0.267	0.232
NCI-H1651	0.529	0.557	0.608	0.679	0.6	0.882	0.956	0.909	0.927	1.03	1.06	1.07	1.03	1.12	1.01	0.333	0.279	0.305	0.243	0.204
NCI-H1666	0.81	0.835	0.736	0.85	0.841	0.799	0.708	0.658	0.778	0.705	0.969	1.06	0.99	0.896	0.894	0.593	0.53	0.577	0.544	0.559
NCI-H1734	0.405	0.351	0.392	0.398	0.416	0.78	0.978	0.976	0.936	0.861	0.802	0.836	0.755	0.736	0.774	0.428	0.333	0.353	0.238	0.203
NCI-H1755	0.474	0.452	0.402	0.44	0.461	0.952	0.988	0.949	0.961	0.93	0.949	1.06	0.967	1.01	0.971	0.647	0.617	0.612	0.549	0.476
NCI-H1792	0.702	0.509	0.609	1.01	0.901	0.785	1.07	0.927	0.94	1	0.61	0.637	0.592	0.653	0.719	0.249	0.172	0.262	0.101	0.0814
NCI-H1915	0.541	0.492	0.534	0.614	0.525	0.86	0.968	0.861	0.87	0.978	0.749	0.781	0.733	0.783	0.763	0.376	0.387	0.391	0.344	0.327
NCI-H1975	0.289	0.311	0.309	0.307	0.301	0.333	0.41	0.335	0.327	0.356	1.02	0.99	1.05	1.03	1.13	0.435	0.382	0.376	0.216	0.162
NCI-H1993	0.63	0.66	0.568	0.651	0.677	0.894	1.09	0.937	1.25	1.04	0.859	0.911	0.86	1.01	0.917	0.486	0.509	0.518	0.5	0.572
NCI-H2009	1.05	1.01	0.984	1.06	1.01	0.982	0.929	1.04	0.657	0.901	1.21	1.14	1.1	1.19	1.12	0.553	0.467	0.474	0.308	0.198
NCI-H2023	0.219	0.221	0.244	0.221	0.244	0.845	0.872	0.911	1.18	1.01	0.958	0.945	0.997	1.2	0.959	0.43	0.361	0.309	0.14	0.122
NCI-H2085	0.832	0.758	0.78	0.835	0.965	0.958	1.01	0.934	1.05	1.1	1.08	1.12	1.04	1.06	1.2	0.839	0.689	0.524	0.348	0.281
NCI-H2087	0.616	0.614	0.691	0.741	0.696	0.686	0.845	0.732	0.849	0.91	1.01	0.975	1.05	0.989	0.873	0.622	0.454	0.378	0.286	0.123
NCI-H2126	0.58	0.628	0.719	0.713	0.629	1.11	1.09	1.08	1.09	1.04	0.818	0.88	0.83	0.857	0.863	0.562	0.513	0.534	0.435	0.366
NCI-H2228	0.334	0.353	0.366	0.356	0.283	0.907	1.15	0.856	0.864	0.828	0.889	0.978	0.692	0.716	0.612	0.302	0.272	0.179	0.192	0.164
NCI-H2347	0.392	0.367	0.428	0.387	0.428		0.801	0.75		0.681	0.434	0.549	0.564	0.482	0.631	0.731	0.409	0.381	0.329	0.264
